Patent US6114381A, “Non-heterocyclic β-phenyl-α-aminopropionic acid n-phenyl amides for treatment of neurotoxic injury” (priority 1998, dated 2000)
Where a name gives a salt, the structure may show the parent alone. Read-outs that look alike come from different tables or passages of the source.

Columns and labels:
PCP receptors = experiment: Radioreceptor assay (3H-TCP displacement, rat brain membranes); settings: read-out: Ki apparent, 1 nM 3H-TCP, whole rat brain membranes, 1 h incubation, Cheng & Prusoff
[1] = test system: CAl region of the hippocampus; experiment: Forebrain ischemia assay (carotid occlusion, CA1 hippocampal cell loss); format: in vivo, Mongolian gerbil; settings: 30 mg/kg i.p. 30 min prior to carotid occlusion; 7 days after; n=6 vs 69 saline gerbils; Mann-Whitney U, p<0.005
Procedure: Male Mongolian gerbils, 50-70 gm, were used as subjects. Compound No. 4 (30 mg/kg) was injected i.p. 30 minutes prior to carotid occlusion into 6 gerbils. In preparation for surgical procedures, the animals were lightly anesthetized with methoxyflurane and placed upside down on a heated pad with the animal's snout within a nosecone. A mixture of 70 parts nitrous oxide, 30 parts oxygen and 0.5 part halothane was circulated through the nosecone to provide continuous anesthesia throughout the surgical procedure. A midline incision was made in the neck and the carotid arteries were exposed. A length of suture thread was placed under each carotid. The thread was then tightened around each carotid and pressure applied to the thread to insure flow was occluded. Flow was occluded for 4-5 minutes and then the thread was removed. The carotids were visually inspected to confirm that reflow had occurred. The wound was then closed with autoclips and the gerbils allowed to recover. Following surgery, the gerbils were kept alive for 7 days. They were anesthetized with 100 mg/kg sodium pentobarbital and perfused transcardially with saline (with heparin) followed by buffered formalin. The brain was removed, trimmed and prepared for histological processing. Sections (10 microns) were stained with thionin. […]

[2] = Behavioral assay (stereotyped behavior, PCP rating scale); format: in vivo, rat (male Sprague-Dawley)
Procedure: Compound No. 4 was tested by an in vivo assay which determined stereotypic behavior in rats treated with the compound. Male Sprague-Dawley rats weighing 200 to 250 g were used in the behavioral experiments. Each rat was used only once. Rats were anesthetized lightly with ether before a 20-gauge needle was used to make a hole in the rat's skull for i.c.v. injection of drugs at a later date. These rats were allowed to recover for at least 1 day before being used in the behavioral assays. On the day of the experiement, rats were placed individually into plastic rat cages and allowed at least 1 hr to acclimate before testing. Drugs were administered to rats in a random, single-blind fashion. Behavioral ratings were taken at 5-min intervals up to 1 hr after drug administration (i.p.) using the PCP rating scale as described by Sturgeon et al [Sturgeon, R. D., Fessler, R. G. and Meltzer, H. Y., "Behavioral Rating Scales for Accessing Phencyclidine-Induced Locomotor Activity. […] Dose-response curves for each treatment were determined at the time of maximal behavioral effect. […] ED50 values and dose-response curves were evaluated using a computerized Finney assay [Statistical Methods in Biological Assays, 2nd Edn., Hatner Pub. […] The ability of the Compound No. 4 to induce stereotyped behavior was assessed at 2.5, 5 and 10 minutes and thereafter every 5 min up to 1 hr after i.p. administration.

NMDA [3] = settings: Anis et al, Br. J. Pharmacol. 1983; cited from earlier work
[4] = test system: rat cerebral cortical membranes; settings: Goldman et al, FEBS Lett.; cited from earlier work
NMDA [5] = settings: Berry et al, Eur. J. Pharm. 1983; binding and behavioral data; cited from earlier work

SMILES	Ki (PCP receptors) [nM]	also measured
Cc1cc(O)cc(C)c1C[C@H](N)C(=O)N(C)c1ccccc1 [Compound No. 3, αS-amino-4-hydroxy-N,2,6-trimethyl-N-phenylbenzenepropanamide, monohydrochloride]	2600	–
Cc1cc(O)ccc1C[C@H](N)C(=O)N1CCCc2ccccc21 [Compound No. 2, 1-[2S-amino-3-(4-hydroxy-2-methylphenyl)-1-oxopropyl]-1,2,3,4-tetrahydroquinoline, monohydrochloride]	800	–
Cc1cc(O)cc(C)c1C[C@H](N)C(=O)N1CC(C)Cc2ccccc21 (single isomer, unassigned) [Compound No. 6, 1-[-2S-amino-3-(4-hydroxy-2,6-dimethlyphenyl)-1-oxopropyl]-1,2,3,4-tetrahydro-3-methylquinoline, hydrochloride]	–	Ki (PCP receptors; hydrochloride): 240 nM
N[C@@H](Cc1ccc(O)cc1)C(=O)N1CCCc2ccccc21 [Compound No. 1, 1-[2S-amino-3-(4-hydroxyphenyl)-1-oxopropyl]-1,2,3,4-tetrahydroquinoline, monohydrochloride]	7100	–
Cc1cc(O)cc(C)c1C[C@H](N)C(=O)N1CCc2ccccc21 [Compound No. 8, 1-[2S-amino-3-(4-hydroxy-2,6-dimethylphenyl)-1-oxopropyl]-2,3-dihydro-1H-indole, monohydrochloride]	1450	–
Cc1cc(O)cc(C)c1C[C@H](N)C(=O)N1CCCc2ccccc21 [Compound No. 4, 1-[2S-amino-3-(4-hydroxy-2,6-dimethylphenyl)-1-oxopropyl]-1,2,3,4-tetrahydroquinoline, monohydrochloride]	16	cell loss in CA1 [1]: significantly reduced; ED50 ([2]; Rattus norvegicus, ip, rats, PCP rating scale, at time of maximal effect, read-out: ED50 for induction of stereotyped behavior): 11 mg/kg
Cc1cc(O)cc(C)c1C[C@H](N)C(=O)N1Cc2ccccc2CCc2ccccc21 [Compound No. 12, 5-[2S-amino-3-(4-hydroxy-2,6-dimethylphenyl)-1-oxopropyl]-5,6,11,12-tetrahydrodibenz[b,f]azocine, monohydrochloride]	20000	–
Cc1cc(O)cc(C)c1C[C@H](N)C(=O)N1CCCc2cccc(O)c21 [Compound No. 11, 1-[2S-amino-3-(4-hydroxy-2,6-dimethylphenyl)-1-oxopropyl]-1,2,3,4-tetrahydro-8-hydroxyquinoline, monohydrochloride]	420	–
CNC1(c2ccccc2Cl)CCCCC1=O (stereo not shown) [ketamine]	–	reduction of excitatory effects of NMDA as compared to KA and QUIS (NMDA [3]): reduce selectively the excitatory effects of NMDA
CC1CCCN(C2(c3ccccc3)CCCCC2)C1 (single isomer, unassigned; (+)) [(+)-PCMP, (+)-1-(1-phenylcyclohexyl)-3-methylpiperidine]	–	inhibition of specific binding of [3H]PCP [4]: potent inhibitor; stereoselective effect over corresponding isomer in reducing the excitatory action of NMDA (NMDA [5]): confirmed
c1ccc(C2(N3CCCCC3)CCCCC2)cc1 [PCP, Phencyclidine, reference compound]	96	time of peak effects (stereotyped behavior) ([2]; PCP 2.0-32 mg/kg i.p.): 15 min; reduction of excitatory effects of NMDA as compared to KA and QUIS (NMDA [3]): reduce selectively the excitatory effects of NMDA
COc1cc(C)c(C[C@H](N)C(=O)N2CCCc3ccccc32)c(C)c1 [Compound No. 10, 1-[2S-amino-3-(4-methoxy-2,6-dimethylphenyl)-1-oxopropyl]-1,2,3,4-tetrahydroquinoline, monohydrochloride]	4500	–
Cc1cc(O)cc(C)c1C[C@@H](N)C(=O)N1CCCc2ccccc21 [Compound No. 5, 1-[2R-amino-3-(4-hydroxy-2,6-dimethylphenyl)-1-oxopropyl]-1,2,3,4-tetrahydroquinoline, monohydrochloride]	100	–
CC1CCC(c2ccccc2)(N2CCCCC2)CC1 (stereo not drawn) [cis-N-(1-phenyl-4-methylcyclohexyl)piperidine]	–	stereoselective effect over corresponding isomer in reducing the excitatory action of NMDA (NMDA [5]): confirmed
COc1ccc2c(c1)CCCN2C(=O)[C@@H](N)Cc1c(C)cc(O)cc1C [Compound No. 9, 1-[2S-amino-3-(4-hydroxy-2,6-dimethylphenyl)-1-oxopropyl]-1,2,3,4-tetrahydro-6-methoxyquinoline, monohydrochloride]	4100	–
Cc1cc(O)cc(C)c1C[C@H](N)C(=O)N1CC(C)Cc2ccccc21 (single isomer, unassigned) [Compound No. 7, 1-[2S-amino-3-(4-hydroxy-2,6-dimethylphenyl)-1-oxopropyl]-1,2,3,4-tetrahydro-3-methylquinoline, hydrochloride]	–	Ki (PCP receptors; hydrochloride): 880 nM
c1csc(C2(N3CCCCC3)CCCCC2)c1 [TCP, reference compound]	20	–
